In US20110092433A1, “FGF9-RELATED METHODS FOR TREATING ANXIETY” (THE BOARD OF TRUSTEES OF THE LELAND STANFORD JUNIOR …, priority 2007, published 2011):

Experiments:
Rodents [1] = test: Forced swim test (FST) after microinjection; format: in vivo; details: acute microinjection, versus controls
Text: (§1) This is also in the same direction as the FGF2 data, consistent with the fact that both FGF2 and NCAM interact with the FGF receptor.
(§2) These observations are nevertheless consistent with the conclusions drawn from the microinjection studies above.

Rodents [2] = test: Elevated plus maze (EPM) after microinjection; format: in vivo; details: for time in the center quadrant of EPM / time in the closed arms of EPM / time in the open arms of EPM: acute microinjection, versus controls
Text: as §1, §2

Sprague-Dawley rats [3] = test: Morris water maze in adults after early postnatal FGF2; format: in vivo, rat; details: FGF2 20 ng/g s.c. the day after birth, tested as adults
Experimental: (§3) Methods. Sprague-Dawley rats were injected with either vehicle or FGF2 (20 ng/g, s.c.) the day after birth and sacrificed after Morris water maze testing as adults. We assessed changes in gene expression using both a candidate approach and a gene discovery approach with laser-capture microdissection of the dentate gyrus followed by microarray analyses.

[4] = tested on: hippocampal gene expression; test: Hippocampal gene expression in adults after early postnatal FGF2 (histochemical and RNA expression assays); format: in vivo, rat; details: adult rats, FGF2 20 ng/g s.c. the day after birth
Experimental: as §3

rats = test: Elevated plus-maze (EPM) and light-dark (LD) anxiety test after chronic FGF2; format: in vivo, rat; details: FGF2 5 ng/g i.p. every 48 hours for 3 weeks
Experimental: Anxiety disorders have a high comorbidity with other neuropsychiatric disorders including Major Depression (MD). […] Rats were placed into “high anxiety” (LR) or “low anxiety” (HR) groups based on their behavior in a variety of motor and behavioral tests. Both groups of animals were administered either FGF2 (5 ng/g) or vehicle by intraperitoneal injection every 48 hours for 3 weeks. One day after the last FGF2 injection, all animals were tested in the elevated plus-maze (EPM) and light-dark (LD) anxiety test.
The apparatus for the EPM test is constructed of black Plexiglass with […] (70 cm from the floor, 45 cm long, and 12 cm wide). Illumination is provided by a 40-watt desk lamp facing a wall and placed behind one of the closed arms. The scientists put the animal inside the system. Animals that are less anxious spend more time in the open arms whereas animals that are more anxious spend less time in the open arms.
The LD test is conducted in a 30×60×30-cm Plexiglas shuttle box with a translucent cover. Each box is divided into two equal-sized compartments by a wall with a 12 cm-wide open door. One compartment is painted white and brightly illuminated, and the other is painted black with very dim light. The time each rat spends in each compartment is monitored by rows of five photocells located 2.5 cm above the grid floor of each compartment. […]

[5] = tested on: FGFR2 and FGFR3 exon IIIc:IIIb splice variant ratio; test: Real time RT-PCR of exon IIIc:IIIb splice variant ratio in frontal cortex; format: in vivo, rat; details: FGF2 5 ng/g i.p. every 48 hours for three weeks, NS or S group, P>0.1
Experimental: Animals. Twenty-four male Sprague-Dawley rats weighing 220-250g were ordered from Charles River (Wilmington, Mass.) and remained undisturbed for one week to acclimatize to housing conditions. The animals were housed in pairs on a 12 h light-dark cycle (lights on 6:00 A.M.) with food and water available ad libitum. All experiments were conducted in accordance with the NIH Guide for the Care and Use of Animals and the University Committee on the Use and Care of Animals.
FGF2 injection treatments and chronic unpredictable stress (CUS) conditions. […]
Total RNA extraction. […] Using the Bioanalyzer's concentration readings, the samples were normalized to 25 ng/μL of total RNA per subject and stored at −80° C.
cDNA synthesis. cDNA was synthesized using the iScript cDNA Synthesis Kit (Bio-Rad, Hercules, Calif.). […] The double-stranded cDNA solutions were then analyzed for quality and concentration using Invitrogen's Quant-iT PicoGreen dsDNA kit. […] The fluorescently labeled samples were analyzed with a 1420 Victor^2 Multilabel Counter (EG&G Wallac, Wellesley, Mass.) using the basic Fluorescein protocol. […]
Real time RT-PCR primer design. […] Exon sequences were analyzed using NCBI's nucleotide and protein BLAST and were matched with their corresponding protein products within the receptor structures (FIG. 11). […]

Sprague-Dawley rats [6] = test: Forced swim testing after chronic FGF2; format: in vivo, rat; details: chronic FGF2 administration
Experimental: FGF2 injection treatments and chronic unpredictable stress (CUS) conditions. Half of the rats (n=12) were administered vehicle (0.1M PBS with 100 μg/mL bovine serum albumin), and the other half (n=12) were administered human recombinant FGF2 dissolved in vehicle in 5 ng/g dosages (Sigma, St. Louis, Mo.) every 48 hours for three weeks. All treatments were injected intra-peritonealy. During the same three week period as the FGF2 treatments, the vehicle group was either handled (n=6) or exposed to CUS (n=6). Likewise, the FGF2 injected group was either handled (n=6) or exposed to CUS (n=6). The animals were exposed to the following chronic unpredictable stressors (described in Isgor et al. (2004)): ether (30 s), cold (2 h), noise (15 m), isolation (24 h), or restraint (2 h). The stressors were randomized to avoid habituation; sessions occurred once each day in either the morning or afternoon. The 2×2 (condition by treatment) design divided the subjects into nonstressed/vehicle (NS/V), nonstressed/FGF2 injection (NS/F), stressed/vehicle (S/V), and stressed/FGF2 injection (S/F) groups.
Forced swim testing. To test for possible FGF2 injection effects on anti-depressant behavior for other studies, all animals were subjected to forced swim testing according to Lucki (1997) 24 h after the termination of the FGF2 treatments and CUS conditions.

Row | Substance | depression-like behavior (FST) (Rodents [1]) | immobility in FST (Rodents [1]) | swimming in FST (Rodents [1]) | time in the center quadrant of EPM (Rodents [2]) | time in the closed arms of EPM (Rodents [2]) | time in the open arms of EPM (Rodents [2]) | also measured
1 | HFKDPKRLY [FGF system peptide inhibitor] | increased depression-like behavior | more immobility | less swimming | significantly more time | less time | equal time | climbing in FST (Rodents [1]): significantly less climbing
2 | EVYVVAENQQGKSKA [NCAM] | less depression-like behavior | less immobility |  | significantly less time | more time (although not signficantly more time) | less time | 
3 | FGF2: human recombinant FGF2 (Sigma), fibroblast growth factor 2 | less depression-like behavior | less immobility | more swimming |  | significantly more time | less time | anxiety-like behavior (EPM) (Rodents [2]; acute injection): increased; time to find a hidden platform in Morris Water maze test (average) (Sprague-Dawley rats [3]): 20 s; performance in learning and memory tests (Sprague-Dawley rats [3]; versus vehicle): significantly better; expression of CCK [4]: increased; expression of GAP-43 [4]: increased; expression of NCAM [4]: decreased; expression of Rgs4 [4]: increased; expression of SST [4]: increased; expression of Vgf [4]: increased; expression of trkB [4]: increased; anxiety versus vehicle (rats): less anxious; anxiety-reducing effects in innately more anxious (LR) rats (rats; LR versus HR): more pronounced; effect on exon IIIc:IIIb ratio [5]: did not alter; depression-like behavior (Sprague-Dawley rats [6]): decreases depression-like behavior
